According to PMC8497620, “Structure and inhibition of Cryptococcus neoformans sterylglucosidase to develop antifungal agents” (Nature Communications, 2021):
Where “and” joins values, the source holds several entries; their conditions need not be identical. Identical values can stand only once. Like-named read-outs stand apart in the source and are kept apart here.

Legend:
[1] = system: human lung epithelial cancer cell line A549; details: LD50 A549 / IC50 Sgl1
Procedure: The cells were maintained in Dulbecco’s modified eagle medium containing 10% fetal bovine serum and 1% penicillin–streptomycin. At passage 11, 10^5 cells were transferred into each well of 96-well plates and cultured for 18–24 h for the cells to adhere to the well surface. After, the medium was removed and a fresh medium containing the selected compounds at a concentration range of 1–512 μM were added to the wells. Controls with equivalent serial concentrations of DMSO were also evaluated and compared with a control without DMSO. The plate was incubated at 37 °C with 5% CO2. After 24 h, the supernatant was removed and 50 μL of 5 mg/mL 3-(4,5-dimethylthiazol-2-yl)-2,5-diphenyltetrazoliumbromide (MTT) solution in phosphate-buffered saline (PBS) was added to each well. The plates were incubated for an additional 4 h and the formazan crystals formed inside the cell was dissolved by adding 50 μL DMSO.

Cerezyme = biological target: T1, Cerezyme (Homo sapiens, UniProt P04062, R534H); assay: Cerezyme activity on mammalian C18-glucosylceramide in presence of hits (LC-MS); assay type: biochemical; details: for C18-ceramide: hits at 100 µM, 10 µg Cerezyme, 10 µg mammalian C18-glucosylceramide, pH 5.5, 37°C, 3 hours; for inhibition of human Cerezyme: physiological mammalian glucosylceramide substrate, 100 µM compound
T1 construct: purchased Genzyme Corporation, Cambridge, MA, USA
T1 sequence (P04062 40-536 R534H): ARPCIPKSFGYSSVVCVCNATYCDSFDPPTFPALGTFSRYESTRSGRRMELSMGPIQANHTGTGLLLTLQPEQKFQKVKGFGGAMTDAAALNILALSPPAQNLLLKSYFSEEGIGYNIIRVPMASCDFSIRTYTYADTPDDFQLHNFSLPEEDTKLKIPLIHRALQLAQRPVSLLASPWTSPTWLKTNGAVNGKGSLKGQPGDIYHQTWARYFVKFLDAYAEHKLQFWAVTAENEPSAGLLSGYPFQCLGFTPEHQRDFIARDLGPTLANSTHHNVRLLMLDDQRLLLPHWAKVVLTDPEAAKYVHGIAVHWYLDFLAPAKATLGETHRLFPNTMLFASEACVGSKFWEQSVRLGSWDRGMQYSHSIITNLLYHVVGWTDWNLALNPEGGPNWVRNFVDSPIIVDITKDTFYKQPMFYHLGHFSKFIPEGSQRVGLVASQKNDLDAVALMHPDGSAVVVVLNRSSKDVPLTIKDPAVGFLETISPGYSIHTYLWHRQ
Procedure: Supplementary figure 8. Cerezyme is not inhibited by its 1, 9 and 15. 10 µg of Cerezyme was added to 10 µg of mammalian C18-glucosylceramide in the presence of 100 µM of compound hits. The reactions were performed in 50 mM sodium acetate buffer pH5.5 and incubated at 37°C for 3 hours. The amount of C18-ceramide formed was quantified by LC-MS. There was no significant difference between the control (no drug) and samples with 100 µM of hits 1, 9 and 15 (p>0.05). Statistical analysis by one-way ANOVA, Dunnett's Multiple Comparison Test. Data represent the mean +/- SD of n=3 independent experiments.

C. neoformans H99 = assay type: cell-based, Cryptococcus neoformans; details: for Ergosterol 3β-D-glucoside accumulation (pmol/ Inorganic phosphate): 100 µM; for accumulation of erg-glc, fold less than the mutant Cn Δsgl1: 500 µM, 24 h; for erg-glc accumulation compared to untreated Cn H99 control: 24 h of treatment
Procedure: C. neoformans H99 was cultivated in yeast nitrogen base (YNB) broth for 24 h at 37 °C with shaking. […] […] After that, the resultant pellets were re-counted and used for lipid extraction. Thenceforth the total lipid was extracted as described previously by Singh et al.[55]. The dried samples were resuspended in chloroform/methanol 2:1 ratio for LC-MS analysis. A standard erg-glc from Avanti Polar Lipids was used as a control for the calibration curve. Data were normalized to the total inorganic phosphate content in the sample.

[2] = biological target: T2, Cerezyme (human glucosylceramidase) (Homo sapiens, UniProt P04062, R534H); assay: Effect on Cerezyme activity with res-glp substrate; assay type: biochemical; details: substrate resorufin 3β-D-glucopyranoside (100 µM)
T2 construct: purchased Genzyme Corporation, Cambridge, MA, USA
T2 sequence (P04062 40-536 R534H): T1 sequence (P04062 40-536 R534H)
Procedure: Resorufin-3β-D-glucopyranoside (res-glp, Sigma-Aldrich) enzyme kinetic assays were performed according to methods described by Urban et al.[16] with modifications. Reaction buffer contained 50 mM citric acid, 176 mM K2HPO4, pH 6, 0.01% Tween-20, and 10 mM sodium taurocholate. The reactions were carried out in black 96-well plates using 20 ng of enzyme with 100 μM res-glp substrate. In all, 10 μL/well of res-glp substrate was added to each well and the reaction was initiated by adding 20 μL enzyme (20 ng). After incubation at 37 °C for 30–40 min, the fluorescence was read at an excitation of 570 (±10) nm and an emission of 610 (±10) nm on a VersaMax™ Microplate Reader from Molecular Devices. A standard curve was prepared with serial dilutions of the free fluorophore, resorufin, in the same volume of assay buffer. All reactions were linear with respect to time and protein concentration and the pH, temperature, and dimethyl sulfoxide (DMSO) optimal tolerance was verified.
The Z′-factor was used for the assessment of the efficiency of the HTS assay for each individual plate. Values greater than 0.5 has been considered as an indicator of an excellent screening assay quality. […] The top three hits identified were re-tested in serial dilution against Sgl1 and cerezyme.

Compound	selectivity index (SI = LD50/IC50) [1]	C18-ceramide (Cerezyme)	inhibition of human Cerezyme (Cerezyme)	Ergosterol 3β-D-glucoside accumulation (pmol/ Inorganic phosphate) (C. neoformans H99; 12h)	Ergosterol 3β-D-glucoside accumulation (pmol/ Inorganic phosphate) (C. neoformans H99; 24h)	accumulation of erg-glc, fold less than the mutant Cn Δsgl1 (C. neoformans H99)	erg-glc accumulation compared to untreated Cn H99 control (C. neoformans H99)	% Cerezyme Inhibition ([2]; 12.5427 µM compound)	% Cerezyme Inhibition ([2]; 25.0854 µM compound) [%]	inhibition at 25.0854 µM ([2]; 25.0854 µM compound) [%]	% Cerezyme Inhibition ([2]; 50.1708 µM compound) [%]	inhibition at 50.1708 µM ([2]; 50.1708 µM compound) [%]	inhibition at 100.342 µM ([2]; 100.342 µM compound) [%]	% Cerezyme Inhibition ([2]; 200.683 µM compound) [%]	inhibition at 200.683 µM ([2]; 200.683 µM compound) [%]	inhibition at 401.367 µM ([2]; 401.367 µM compound) [%]	% Cerezyme Inhibition ([2]; 800 µM compound) [%]	inhibition at 800 µM ([2]; 800 µM compound) [%]	inhibition at 12.5427 µM ([2]; 12.5427 µM compound) [%]	% Cerezyme Inhibition ([2]; 100.342 µM compound) [%]	further results
COc1cccc(-c2ncc(CN3CCC(O)(CO)CC3)s2)c1 [Hit 1]	> 500	871.82 pmol/mL and 1017.11 pmol/mL and 1021.42 pmol/mL	not inhibited	22000000 pmol/ Inorganic phosphate and 25300000 pmol/ Inorganic phosphate and 19400000 pmol/ Inorganic phosphate	17200000 pmol/ Inorganic phosphate and 20300000 pmol/ Inorganic phosphate and 31000000 pmol/ Inorganic phosphate	about 10 fold	significant differences, especially in concentrations higher than 10 µM	4.937% and 1.065%	6.583	7.34	7.795	8.81	9.86	9.338	9.63	9.86	12.9786	10.5	–	–	–
CN1C[C@@H](NC(=O)Cc2ccc3c(c2)NC(=O)CO3)C[C@@H]1CO [Hit 9]	> 500	1045.62 pmol/mL and 1138.29 pmol/mL and 953.48 pmol/mL	not inhibited	–	–	about 10 fold	–	0.6044%	2.143	2.64	6.259	5.68	6.87	9.927	9.82	14.1	–	16.7	1.03	7.029	% Cerezyme Inhibition ([2]; 401.367 µM compound): 12.2165%
CC(C)c1nc(N[C@@H]2C[C@@H](CO)N(C)C2)c2cnn(C)c2n1 [Hit 15]	> 500	1251.6 pmol/mL and 855.67 pmol/mL and 1299.99 pmol/mL	not inhibited	28100000 pmol/ Inorganic phosphate and 30500000 pmol/ Inorganic phosphate and 41500000 pmol/ Inorganic phosphate	39400000 pmol/ Inorganic phosphate and 51600000 pmol/ Inorganic phosphate and 57400000 pmol/ Inorganic phosphate	about 10 fold	significant differences, especially in concentrations higher than 10 µM	–	1.771	1.74	3.823	2.11	5.46	6.666	9.37	13.2	12.1079	16.6	0	6.414	selectivity index (SI = LD50/IC50) ([1]; listed as 15): > 512; Ergosterol 3β-D-glucoside accumulation (pmol/ Inorganic phosphate) (C. neoformans H99; 48h): 34400000 pmol/ Inorganic phosphate and 28300000 pmol/ Inorganic phosphate and 33700000 pmol/ Inorganic phosphate; % Cerezyme Inhibition ([2]; 401.367 µM compound): 12.8892%
